Reference: US20080269152A1, “Nucleic acid binding oligonucleotides” (President and Fellows of Harvard College Harvard Medical …, priority 2003, published 2008)

Test system: internal ribosome entry site of the Hepatitis C virus, nucleotides 1-372 (HCV-IRES) RNA
Experiment: Hybridization of Cy3-labeled HCV-IRES RNA to DNA 5mer array
Format: binding
Details: address among the 40 most fluorescent in 3 out of 5 arrays; HCV-IRES RNA 92.7 nM, 4° C. overnight, scanned at 532 nm
Procedure: A short DNA 5mer array was made to order by Combimatrix® Mukilteo, Wash. The array contained 1,000 of the […] possible DNA 5mer oligomers, and provided a separate address for each oligomer.
The target nucleic acid sequence used was the RNA transcript of the internal ribosome entry site of the Hepatitis C virus, nucleotides 1-372 (HCV-IRES). The RNA was prepared using a Megascrip™ T7 kit, nuclease free water and 5-(3aminoallyl)-UTP, which were all provided by Ambion Inc. A DNA template encoding the HCV-IRES was constructed according to standard techniques and linearized. RNA synthesis reaction mixture contained the following:
The reaction mixture was incubated at 30° C. overnight and purified using Rneasy® kit from QIAGEN, Inc. Target Sequence was then labeled using a Cy3 monoreactive dye pack from Amersham Biosciences, Inc. Dried HCV-IRES RNA was added to 20 μL of sodium carbonate (0.1 M pH 8.5) followed by 20 μL Cy3 dye solution. The reaction mixture was mixed and incubated at room temperature for 1 hour in the dark and purified using RNeasy® mini-kit.
The array was incubated with RNase free water for 30 minutes at 37° C. then washed three times with wash buffer (300 mM NaCl, 100 mM MgCl2). Hybridization was effected by adding a solution of HCV-IRES RNA (92.7 nM in 300 mM NaCl, 100 mM MgCl2 and 100 mM Tris pH 7.4) into the hybridization chamber. The array was incubated at 4° C. overnight in the dark and rinsed three times with wash buffer.
If an address corresponding to the same oligomer was selected in 3 out of 5 arrays analyzed, that oligomer was scored as likely binding ligand for the HCV-IRES RNA.

Sequence	likely binding candidates for HCV-IRES
GGCCC	likely binding candidates
GGGGG	likely binding candidates
GGTCC	likely binding candidates
GTCCC	likely binding candidates
TTCCC	likely binding candidates
TTCTC	likely binding candidates
